{
  "source": "ChEMBL document CHEMBL5055685",
  "about": "“Discovery of the First Potent IDO1/IDO2 Dual Inhibitors: A Promising Strategy for Cancer Immunotherapy” (J Med Chem, 2021)",
  "key": {"[1]": {"molecular_target": "Dual specificity mitogen-activated protein kinase kinase 1 (Homo sapiens) (UniProt Q02750)", "assay": "Inhibition of MEK1 (unknown origin) at 1 uM"}, "[2]": {"molecular_target": "Proto-oncogene tyrosine-protein kinase receptor Ret (Homo sapiens) (UniProt P07949)", "assay": "Inhibition of RET (unknown origin) at 1 uM"}, "[3]": {"molecular_target": "Ribosomal protein S6 kinase alpha-2 (Homo sapiens) (UniProt Q15349)", "assay": "Inhibition of RSK3 (unknown origin) at 1 uM"}, "HCT-116": {"system": "HCT-116", "assay": "Antitumor immunity in BALB/c mouse xenografted with human HCT-116 cells assessed as increase in IFNgamma in serum by […]", "assay_type": "functional, cell-based"}, "[4]": {"molecular_target": "Indoleamine 2,3-dioxygenase 1 (Mus musculus) (UniProt P28776)", "assay": "In vivo inhibition of IDO1 in BALB/c mouse xenografted with human HCT-116 cells assessed as suppression of IDO1 mRNA expression in tumor by quantitative RT-PCR analysis", "assay_type": "functional, organism-based"}, "[5]": {"molecular_target": "Serine/threonine-protein kinase Nek7 (Homo sapiens) (UniProt Q8TDX7)", "assay": "Inhibition of NEK7 (unknown origin) at 1 uM"}, "[6]": {"molecular_target": "Cyclin-Y/Cyclin-dependent kinase 16 (Homo sapiens) (UniProt Q00536+Q8ND76)", "assay": "Inhibition of CDK16/cyclin-Y (unknown origin) at 1 uM", "assay_type": "protein-complex assay"}, "[7]": {"molecular_target": "Testis-specific serine/threonine-protein kinase 1 (Homo sapiens) (UniProt Q9BXA7)", "assay": "Inhibition of STK22D (unknown origin) at 1 uM"}, "[8]": {"molecular_target": "Vascular endothelial growth factor receptor 2 (Homo sapiens) (UniProt P35968)", "assay": "Inhibition of KDR (unknown origin) at 1 uM"}, "[9]": {"molecular_target": "Serine/threonine-protein kinase Nek11 (Homo sapiens) (UniProt Q8NG66)", "assay": "Inhibition of NEK11 (unknown origin) at 1 uM"}, "[10]": {"molecular_target": "Serine/threonine-protein kinase D2 (Homo sapiens) (UniProt Q9BZL6)", "assay": "Inhibition of PKD2 (unknown origin) at 1 uM"}, "[11]": {"molecular_target": "Non-receptor tyrosine-protein kinase TYK2 (Homo sapiens) (UniProt P29597)", "assay": "Inhibition of TYK2 (unknown origin) at 1 uM"}, "[12]": {"molecular_target": "Leukocyte tyrosine kinase receptor (Homo sapiens) (UniProt P29376)", "assay": "Inhibition of TYK1 (unknown origin) at 1 uM"}, "[13]": {"molecular_target": "Dual specificity mitogen-activated protein kinase kinase 7 (Homo sapiens) (UniProt O14733)", "assay": "Inhibition of MKK7 (unknown origin) at 1 uM"}, "[14]": {"molecular_target": "Tau-tubulin kinase 2 (Homo sapiens) (UniProt Q6IQ55)", "sequence (Q6IQ55 whole entry)": "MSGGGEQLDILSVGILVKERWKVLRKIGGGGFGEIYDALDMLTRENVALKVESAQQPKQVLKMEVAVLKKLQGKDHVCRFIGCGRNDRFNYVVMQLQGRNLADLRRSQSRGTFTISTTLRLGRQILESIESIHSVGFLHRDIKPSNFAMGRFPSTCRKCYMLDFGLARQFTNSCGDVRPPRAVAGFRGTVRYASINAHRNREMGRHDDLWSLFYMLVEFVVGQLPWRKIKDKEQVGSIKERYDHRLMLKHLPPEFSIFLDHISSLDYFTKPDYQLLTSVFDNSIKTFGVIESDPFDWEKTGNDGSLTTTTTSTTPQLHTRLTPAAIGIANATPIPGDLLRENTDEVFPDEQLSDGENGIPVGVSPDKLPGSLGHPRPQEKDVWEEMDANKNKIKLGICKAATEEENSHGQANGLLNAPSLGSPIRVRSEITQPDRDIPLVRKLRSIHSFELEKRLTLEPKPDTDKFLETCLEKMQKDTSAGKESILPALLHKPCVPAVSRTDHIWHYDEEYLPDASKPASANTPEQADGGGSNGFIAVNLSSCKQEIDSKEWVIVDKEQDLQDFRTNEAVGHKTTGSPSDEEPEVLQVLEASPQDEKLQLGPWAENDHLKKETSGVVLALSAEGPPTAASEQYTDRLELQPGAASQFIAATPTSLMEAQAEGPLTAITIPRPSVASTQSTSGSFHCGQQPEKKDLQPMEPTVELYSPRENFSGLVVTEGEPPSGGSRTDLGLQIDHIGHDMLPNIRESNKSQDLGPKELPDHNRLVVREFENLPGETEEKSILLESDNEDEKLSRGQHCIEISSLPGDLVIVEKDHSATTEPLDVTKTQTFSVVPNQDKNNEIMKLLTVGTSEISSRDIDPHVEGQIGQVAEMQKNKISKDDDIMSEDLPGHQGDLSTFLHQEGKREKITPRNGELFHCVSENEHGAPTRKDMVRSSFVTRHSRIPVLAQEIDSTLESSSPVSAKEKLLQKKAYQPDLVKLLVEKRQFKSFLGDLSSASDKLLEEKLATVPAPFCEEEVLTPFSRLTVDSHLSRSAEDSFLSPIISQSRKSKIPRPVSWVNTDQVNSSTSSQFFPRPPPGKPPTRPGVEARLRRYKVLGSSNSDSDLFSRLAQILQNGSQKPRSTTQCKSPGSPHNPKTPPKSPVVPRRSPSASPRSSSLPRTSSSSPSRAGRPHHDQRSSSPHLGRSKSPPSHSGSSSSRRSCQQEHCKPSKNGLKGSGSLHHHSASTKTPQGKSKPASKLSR", "assay": "Inhibition of TTBK2 (unknown origin) at 1 uM"}, "[15]": {"molecular_target": "Serine/threonine-protein kinase Nek4 (Homo sapiens) (UniProt P51957)", "assay": "Inhibition of NEK4 (unknown origin) at 1 uM"}, "[16]": {"molecular_target": "Proto-oncogene tyrosine-protein kinase Src (Homo sapiens) (UniProt P12931)", "sequence (P12931 2-536 limits assumed)": "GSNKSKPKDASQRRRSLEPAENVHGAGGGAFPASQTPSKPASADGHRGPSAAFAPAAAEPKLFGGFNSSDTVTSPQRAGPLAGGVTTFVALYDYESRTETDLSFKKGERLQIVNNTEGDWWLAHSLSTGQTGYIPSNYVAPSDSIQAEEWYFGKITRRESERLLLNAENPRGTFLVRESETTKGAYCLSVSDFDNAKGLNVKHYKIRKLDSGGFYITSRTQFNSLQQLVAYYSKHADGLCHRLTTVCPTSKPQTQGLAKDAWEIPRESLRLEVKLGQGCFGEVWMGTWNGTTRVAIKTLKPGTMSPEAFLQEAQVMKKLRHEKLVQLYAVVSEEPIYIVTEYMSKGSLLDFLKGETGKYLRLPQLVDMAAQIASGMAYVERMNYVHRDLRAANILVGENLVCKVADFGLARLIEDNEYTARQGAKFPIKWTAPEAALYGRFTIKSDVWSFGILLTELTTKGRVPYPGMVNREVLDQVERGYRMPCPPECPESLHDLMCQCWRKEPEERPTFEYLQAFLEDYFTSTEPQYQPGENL", "assay": "Inhibition of c-SRC (unknown origin) at 1 uM"}, "[17]": {"molecular_target": "STE20/SPS1-related proline-alanine-rich protein kinase (Homo sapiens) (UniProt Q9UEW8)", "assay": "Inhibition of STK39 (unknown origin) at 1 uM"}, "[18]": {"molecular_target": "CDK9/Cyclin-T2 (Homo sapiens) (UniProt P50750+O60583)", "assay": "Inhibition of CDK9/cyclin-T2 (unknown origin) at 1 uM", "assay_type": "protein-complex assay"}, "[19]": {"molecular_target": "Calcium/calmodulin-dependent protein kinase type 1D (Homo sapiens) (UniProt Q8IU85)", "assay": "Inhibition of CAMK1D (unknown origin) at 1 uM"}, "[20]": {"molecular_target": "Tyrosine-protein kinase BTK (Homo sapiens) (UniProt Q06187)", "assay": "Inhibition of BTK (unknown origin) at 1 uM"}, "[21]": {"molecular_target": "Mitogen-activated protein kinase 1 (Homo sapiens) (UniProt P28482)", "assay": "Inhibition of ERK2 (unknown origin) at 1 uM"}, "[22]": {"molecular_target": "Protein kinase C iota type (Homo sapiens) (UniProt P41743)", "sequence (P41743 whole entry)": "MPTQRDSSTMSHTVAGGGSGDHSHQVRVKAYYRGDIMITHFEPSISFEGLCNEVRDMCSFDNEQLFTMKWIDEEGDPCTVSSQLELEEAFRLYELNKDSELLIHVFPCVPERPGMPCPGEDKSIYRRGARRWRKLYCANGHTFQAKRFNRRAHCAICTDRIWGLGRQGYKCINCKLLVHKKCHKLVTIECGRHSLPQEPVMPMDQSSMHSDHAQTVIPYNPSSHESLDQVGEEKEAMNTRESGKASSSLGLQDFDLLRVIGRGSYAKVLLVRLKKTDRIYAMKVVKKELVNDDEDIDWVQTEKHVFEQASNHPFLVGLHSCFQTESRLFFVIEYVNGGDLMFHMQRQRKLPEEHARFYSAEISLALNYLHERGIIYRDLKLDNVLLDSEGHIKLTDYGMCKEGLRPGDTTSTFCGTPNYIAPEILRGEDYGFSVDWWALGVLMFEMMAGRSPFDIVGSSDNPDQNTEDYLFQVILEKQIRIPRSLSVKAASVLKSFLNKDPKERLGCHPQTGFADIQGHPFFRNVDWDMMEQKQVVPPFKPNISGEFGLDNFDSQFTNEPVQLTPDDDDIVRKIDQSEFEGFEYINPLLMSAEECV", "assay": "Inhibition of PKCiota (unknown origin)at 1 uM"}, "[23]": {"molecular_target": "Serine/threonine-protein kinase 38-like (Homo sapiens) (UniProt Q9Y2H1)", "assay": "Inhibition of STK38L (unknown origin) at 1 uM"}, "[24]": {"assay": "Oral bioavailability in Sprague-Dawley rat at 50 mg/kg", "assay_type": "ADME, organism-based", "settings": "in vivo"}, "Mus musculus": {"system": "Mus musculus", "assay": "In vivo inhibition of IDO1/IDO2 in BALB/c mouse xenografted with human HCT-116 cells assessed as downregulation of Foxp3 mRNA expression in tumor by quantitative RT-PCR analysis", "assay_type": "functional, organism-based"}, "[25]": {"molecular_target": "Protein kinase C delta type (Homo sapiens) (UniProt Q05655)", "assay": "Inhibition of PKCdelta (unknown origin)at 1 uM"}, "[26]": {"molecular_target": "Serine/threonine-protein kinase/endoribonuclease IRE2 (Homo sapiens) (UniProt Q76MJ5)", "sequence (Q76MJ5 35-926 limits assumed)": "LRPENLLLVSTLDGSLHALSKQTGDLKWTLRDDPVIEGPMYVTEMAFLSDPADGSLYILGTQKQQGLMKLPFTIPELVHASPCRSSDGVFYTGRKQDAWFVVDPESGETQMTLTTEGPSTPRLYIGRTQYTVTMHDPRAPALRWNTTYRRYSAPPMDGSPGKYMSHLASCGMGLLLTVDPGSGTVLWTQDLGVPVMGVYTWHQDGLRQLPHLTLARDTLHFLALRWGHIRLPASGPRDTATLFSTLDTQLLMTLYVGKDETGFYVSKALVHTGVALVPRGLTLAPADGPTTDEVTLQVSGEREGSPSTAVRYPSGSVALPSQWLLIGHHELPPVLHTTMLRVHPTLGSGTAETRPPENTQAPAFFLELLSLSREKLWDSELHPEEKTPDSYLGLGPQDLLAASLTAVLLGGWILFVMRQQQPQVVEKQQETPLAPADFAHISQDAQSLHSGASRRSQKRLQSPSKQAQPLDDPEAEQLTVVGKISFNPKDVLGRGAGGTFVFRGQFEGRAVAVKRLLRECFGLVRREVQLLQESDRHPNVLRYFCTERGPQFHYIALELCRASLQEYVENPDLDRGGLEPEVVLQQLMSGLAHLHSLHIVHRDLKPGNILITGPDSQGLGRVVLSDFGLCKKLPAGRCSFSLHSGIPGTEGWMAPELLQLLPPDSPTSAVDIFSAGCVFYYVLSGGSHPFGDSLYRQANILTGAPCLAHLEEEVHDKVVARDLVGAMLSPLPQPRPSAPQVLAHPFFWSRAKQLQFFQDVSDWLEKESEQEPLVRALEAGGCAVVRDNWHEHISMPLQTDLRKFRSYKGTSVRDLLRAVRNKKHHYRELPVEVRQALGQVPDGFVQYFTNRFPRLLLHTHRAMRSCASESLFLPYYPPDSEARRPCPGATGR", "assay": "Inhibition of ERN2 (unknown origin) at 1 uM"}, "[27]": {"molecular_target": "Ribosomal protein S6 kinase beta-1 (Homo sapiens) (UniProt P23443)", "assay": "Inhibition of p70S6K (unknown origin) at 1 uM"}, "[28]": {"molecular_target": "Serine/threonine-protein kinase SIK2 (Homo sapiens) (UniProt Q9H0K1)", "assay": "Inhibition of SIK2 (unknown origin) at 1 uM"}, "[29]": {"assay": "Protein binding in monkey plasma assessed as fraction unbound by equilibrium dialysis", "assay_type": "ADME, cell-free, Macaca mulatta", "settings": "rhesus monkey"}, "[30]": {"molecular_target": "RAC-gamma serine/threonine-protein kinase (Homo sapiens) (UniProt Q9Y243)", "assay": "Inhibition of AKT3 (unknown origin) at 1 uM"}, "[31]": {"molecular_target": "Mitogen-activated protein kinase kinase kinase 9 (Homo sapiens) (UniProt P80192)", "assay": "Inhibition of MLK1 (unknown origin) at 1 uM"}, "[32]": {"molecular_target": "Dual specificity testis-specific protein kinase 2 (Homo sapiens) (UniProt Q96S53)", "sequence (Q96S53 whole entry, looked up)": "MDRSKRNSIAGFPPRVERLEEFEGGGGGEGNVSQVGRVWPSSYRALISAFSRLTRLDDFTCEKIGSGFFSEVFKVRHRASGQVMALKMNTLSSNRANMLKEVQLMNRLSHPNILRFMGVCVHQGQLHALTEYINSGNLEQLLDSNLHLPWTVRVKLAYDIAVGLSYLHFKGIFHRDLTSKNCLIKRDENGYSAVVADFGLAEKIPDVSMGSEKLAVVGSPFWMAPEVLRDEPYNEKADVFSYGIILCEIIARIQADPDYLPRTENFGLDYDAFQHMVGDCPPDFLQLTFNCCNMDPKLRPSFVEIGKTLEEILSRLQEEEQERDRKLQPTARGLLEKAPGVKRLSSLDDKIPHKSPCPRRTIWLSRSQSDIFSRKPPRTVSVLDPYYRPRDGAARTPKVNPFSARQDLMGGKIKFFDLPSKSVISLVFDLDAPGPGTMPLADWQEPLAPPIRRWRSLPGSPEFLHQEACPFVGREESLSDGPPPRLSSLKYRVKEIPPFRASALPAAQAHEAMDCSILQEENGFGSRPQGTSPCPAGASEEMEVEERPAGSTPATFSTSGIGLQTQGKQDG", "assay": "Inhibition of TESK2 (unknown origin) at 1 uM"}, "[33]": {"assay": "Metabolic stability in dog liver microsomes assessed as rate constant", "assay_type": "ADME, Canis lupus familiaris, Microsome"}, "[34]": {"molecular_target": "Receptor-interacting serine/threonine-protein kinase 3 (Homo sapiens) (UniProt Q9Y572)", "assay": "Inhibition of RIPK3 (unknown origin) at 1 uM"}, "[35]": {"molecular_target": "Casein kinase I isoform gamma-1 (Homo sapiens) (UniProt Q9HCP0)", "assay": "Inhibition of CK1gamma1 (unknown origin) at 1 uM"}, "[36]": {"molecular_target": "Inhibitor of nuclear factor kappa-B kinase subunit alpha (Homo sapiens) (UniProt O15111)", "sequence (O15111 whole entry)": "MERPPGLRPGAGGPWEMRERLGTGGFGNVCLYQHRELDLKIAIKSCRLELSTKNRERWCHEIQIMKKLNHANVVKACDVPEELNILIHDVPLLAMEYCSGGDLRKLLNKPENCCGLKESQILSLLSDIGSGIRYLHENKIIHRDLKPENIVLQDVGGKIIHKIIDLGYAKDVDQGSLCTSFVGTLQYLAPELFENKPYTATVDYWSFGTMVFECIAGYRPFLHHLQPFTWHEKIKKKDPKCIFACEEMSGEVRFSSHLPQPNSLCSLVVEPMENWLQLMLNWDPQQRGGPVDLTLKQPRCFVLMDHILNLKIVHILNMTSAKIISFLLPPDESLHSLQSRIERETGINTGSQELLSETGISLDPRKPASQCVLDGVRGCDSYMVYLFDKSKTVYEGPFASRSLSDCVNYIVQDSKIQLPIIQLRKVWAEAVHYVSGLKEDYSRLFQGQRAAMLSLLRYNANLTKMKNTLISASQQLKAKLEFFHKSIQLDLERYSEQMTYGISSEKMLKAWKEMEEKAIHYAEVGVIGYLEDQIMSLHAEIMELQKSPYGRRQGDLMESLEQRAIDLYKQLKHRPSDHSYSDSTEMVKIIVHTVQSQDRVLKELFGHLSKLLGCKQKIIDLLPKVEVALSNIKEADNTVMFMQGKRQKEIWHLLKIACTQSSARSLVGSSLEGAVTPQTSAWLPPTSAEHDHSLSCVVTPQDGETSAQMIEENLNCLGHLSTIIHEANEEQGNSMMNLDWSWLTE", "assay": "Inhibition of IKKalpha (unknown origin) at 1 uM"}, "[37]": {"molecular_target": "Serine/threonine-protein kinase VRK2 (Homo sapiens) (UniProt Q86Y07)", "assay": "Inhibition of VRK2 (unknown origin) at 1 uM"}, "[38]": {"molecular_target": "Mitogen-activated protein kinase 14 (Homo sapiens) (UniProt Q16539)", "assay": "Inhibition of p38alpha (unknown origin) at 1 uM"}, "[39]": {"molecular_target": "Fibroblast growth factor receptor 2 (Homo sapiens) (UniProt P21802)", "assay": "Inhibition of FGFR2 (unknown origin) at 1 uM"}, "[40]": {"molecular_target": "Tyrosine-protein kinase Fgr (Homo sapiens) (UniProt P09769)", "assay": "Inhibition of FGR (unknown origin) at 1 uM"}, "[41]": {"molecular_target": "Ribosomal protein S6 kinase beta-2 (Homo sapiens) (UniProt Q9UBS0)", "sequence (Q9UBS0 whole entry)": "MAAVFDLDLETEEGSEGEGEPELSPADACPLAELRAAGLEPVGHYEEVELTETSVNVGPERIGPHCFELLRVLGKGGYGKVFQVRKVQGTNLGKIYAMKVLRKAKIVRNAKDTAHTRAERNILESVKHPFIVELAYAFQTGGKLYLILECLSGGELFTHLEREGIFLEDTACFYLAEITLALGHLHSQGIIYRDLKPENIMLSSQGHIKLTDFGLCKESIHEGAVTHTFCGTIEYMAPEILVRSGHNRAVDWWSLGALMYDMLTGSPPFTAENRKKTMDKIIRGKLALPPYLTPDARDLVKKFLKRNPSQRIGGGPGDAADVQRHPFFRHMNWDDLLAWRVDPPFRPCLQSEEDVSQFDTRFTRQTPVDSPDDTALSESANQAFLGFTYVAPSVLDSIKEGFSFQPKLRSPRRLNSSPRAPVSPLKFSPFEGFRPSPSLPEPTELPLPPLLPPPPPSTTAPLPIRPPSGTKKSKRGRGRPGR", "assay": "Inhibition of p70S6Kb (unknown origin) at 1 uM"}},
  "note": "Calls of active or inactive are those of the source. No cut-off for these calls is given here.",
  "data": [
    {"smiles": "OCCOCc1cn(CCNc2nonc2/C(=N/O)Nc2ccc(F)c(Br)c2)nn1", "values": [
      {"measurement": "inhibition", "setting": "[1]", "result": "inactive"},
      {"measurement": "inhibition", "setting": "[2]", "result": "inactive"},
      {"measurement": "inhibition", "setting": "[3]", "result": "inactive"},
      {"measurement": "Activity", "setting": "HCT-116", "result": "Active"},
      {"measurement": "inhibition", "setting": "[4]", "result": "Active"},
      {"measurement": "inhibition", "setting": "[5]", "result": "inactive"},
      {"measurement": "inhibition", "setting": "[6]", "result": "inactive"},
      {"measurement": "inhibition", "setting": "[7]", "result": "inactive"},
      {"measurement": "inhibition", "setting": "[8]", "result": "inactive"},
      {"measurement": "inhibition", "setting": "[9]", "result": "inactive"},
      {"measurement": "inhibition", "setting": "[10]", "result": "inactive"},
      {"measurement": "inhibition", "setting": "[11]", "result": "inactive"},
      {"measurement": "inhibition", "setting": "[12]", "result": "inactive"},
      {"measurement": "inhibition", "setting": "[13]", "result": "inactive"},
      {"measurement": "inhibition", "setting": "[14]", "result": "inactive"},
      {"measurement": "inhibition", "setting": "[15]", "result": "inactive"},
      {"measurement": "inhibition", "setting": "[16]", "result": "inactive"},
      {"measurement": "inhibition", "setting": "[17]", "result": "inactive"},
      {"measurement": "inhibition", "setting": "[18]", "result": "inactive"},
      {"measurement": "inhibition", "setting": "[19]", "result": "inactive"},
      {"measurement": "inhibition", "setting": "[20]", "result": "inactive"},
      {"measurement": "inhibition", "setting": "[21]", "result": "inactive"},
      {"measurement": "inhibition", "setting": "[22]", "result": "inactive"},
      {"measurement": "inhibition", "setting": "[23]", "result": "inactive"},
      {"measurement": "bioavailability", "setting": "[24]", "result": 12, "unit": "%"},
      {"measurement": "inhibition", "setting": "Mus musculus", "result": "Active"},
      {"measurement": "inhibition", "setting": "[25]", "result": "inactive"},
      {"measurement": "inhibition", "setting": "[26]", "result": "inactive"},
      {"measurement": "inhibition", "setting": "[27]", "result": "inactive"},
      {"measurement": "inhibition", "setting": "[28]", "result": "inactive"},
      {"measurement": "fraction unbound", "setting": "[29]", "result": 0.0763},
      {"measurement": "inhibition", "setting": "[30]", "result": "inactive"},
      {"measurement": "inhibition", "setting": "[31]", "result": "inactive"},
      {"measurement": "inhibition", "setting": "[32]", "result": "inactive"},
      {"measurement": "k el", "setting": "[33]", "result": 0.00205, "unit": "s⁻¹"},
      {"measurement": "inhibition", "setting": "[34]", "result": "inactive"},
      {"measurement": "inhibition", "setting": "[35]", "result": "inactive"},
      {"measurement": "inhibition", "setting": "[36]", "result": "inactive"},
      {"measurement": "inhibition", "setting": "[37]", "result": "inactive"},
      {"measurement": "inhibition", "setting": "[38]", "result": "inactive"},
      {"measurement": "inhibition", "setting": "[39]", "result": "inactive"},
      {"measurement": "inhibition", "setting": "[40]", "result": "inactive"},
      {"measurement": "inhibition", "setting": "[41]", "result": "inactive"}
    ]}
  ]
}
